Key:
D2 receptor = molecular target: T1, D2 receptor (Chlorocebus aethiops, UniProt P52702); assay: D2 receptor binding assay (3H-YM 09151-2 displacement); design: species or system African Green monkey; settings: 0.5 nM 3H-YM 09151-2; nonspecific binding with 1 mM spiperone
T1 construct: expressed in transfected cells; host or cells: COS cells
Experimental: (§1) 1. Assay For D2 And D4 Receptor Binding Activity
(§2) Pellets of COS cells containing recombinantly produced D2 or D4 receptors from African Green monkey are used for the assays. The sample is homogenized in 100 volumes (w/vol) of 0.05 M Tris HCl buffer at 4° C. and pH 7.4. The sample is then centrifuged at 30,000×g and resuspended and rehomogenized. The sample is again centrifuged as described above and the final tissue sample is frozen until use. The tissue is resuspended 1:20 (wt/vol) in 0.05 M Tris HCl buffer containing 100 mM NaCl.
(§3) Incubations are carried out at […] and contain 0.4 ml of tissue sample, 0.5 nM ^3 H-YM 09151-2 and the compound of interest in a total incubation of 1.0 ml. Nonspecific binding is defined as that binding found in the presence of 1 mM spiperone; without further additions, nonspecific binding is less than 20% of total binding. Binding characteristics for representative examples of this invention for the D2 and D4 receptor subtypes are shown in Table 2 below for rat striatal homogenates. The binding characteristics of compounds of Formula I for the D4 receptor, expressed in nM, generally range from about 0.5 nanomolar (nM) to about 25 nanomolar (nM). These compounds typically have binding constants for the D2 receptor of from about 200 nM to more than 1000 nM.

D4 receptor = D4 receptor binding assay (3H-YM 09151-2 displacement); design: species or system African Green monkey; settings: 0.5 nM 3H-YM 09151-2; nonspecific binding with 1 mM spiperone
Experimental: as §1, §2, §3

T1 sequence (P52702 whole entry): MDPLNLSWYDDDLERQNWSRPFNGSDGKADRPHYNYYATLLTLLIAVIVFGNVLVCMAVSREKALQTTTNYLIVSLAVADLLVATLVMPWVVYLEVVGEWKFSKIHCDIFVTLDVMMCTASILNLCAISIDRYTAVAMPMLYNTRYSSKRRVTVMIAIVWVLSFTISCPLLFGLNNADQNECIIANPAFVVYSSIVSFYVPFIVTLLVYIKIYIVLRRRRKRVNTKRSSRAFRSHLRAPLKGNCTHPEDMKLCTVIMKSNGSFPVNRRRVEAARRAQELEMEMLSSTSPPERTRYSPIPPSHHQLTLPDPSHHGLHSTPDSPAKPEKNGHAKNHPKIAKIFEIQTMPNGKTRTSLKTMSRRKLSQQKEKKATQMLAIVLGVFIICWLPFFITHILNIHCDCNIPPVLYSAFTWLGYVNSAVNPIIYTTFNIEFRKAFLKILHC

Compound | Ki (D2 receptor) | Ki (D4 receptor)
Clc1ccc(CN2CCN(c3nccc4ccccc34)CC2)cc1 [Compound 1] | 556 nM | 5 nM
Fc1ccc(CN2CCN(c3nccc4ccccc34)CC2)cc1F [Compound 2] | 1000 nM | 13 nM
c1ccc2c(N3CCN(Cc4ccc5c(c4)OCO5)CC3)nccc2c1 [Compound 4] |  | 19 nM
Cc1ccc(CN2CCN(c3nccc4ccccc34)CC2)cc1 [Compound 6] | 220 nM | 9 nM

— patent publication US6008352A, “1-(isoquinolin-1-yl)-4-(1-phenylmethyl) piperazines; dopamine receptor subtype specific ligands” (Neurogen Corporation, priority 1998, dated 1999)
